Laboratory results: US20050043412A1, “Remedies for glaucoma comprising bunazosin and prostaglandins” (SANTEN PHARMACEUTICAL CO LTD, priority 2002, published 2005)
Structures can show the parent of a compound that is named as a salt.

System: intraocular pressure of cynomolgus monkeys
Assay: Effect on intraocular pressure in normal cynomolgus monkeys after topical instillation
Format: in vivo, cynomolgus monkeys (Macaca fascicularis)
Conditions: normal cynomolgus monkey, single eye, 20 μl instillation (Detantol 0.01% bunazosin hydrochloride; Xalatan 0.005% latanoprost; combination: Xalatan 5 minutes after Detantol); IOP measured 2, 4 and 6 hours after administration
Description: So as to study the utility of bunazosin in combination with prostaglandin, bunazosin and prostaglandin were administered in combination to cynomolgus monkeys (Macaca fascicularis), examining the effect on intraocular pressure. Latanoprost was used as prostaglandin.
For bunazosin administration, Detantol (trade mark) ophthalmic solution, which contains bunazosin hydrochloride at 0.01%, was used. For latanoprost administration, Xalatan (trade mark) ophthalmic solution, which contains latanoprost at 0.005%, was used.
Cynomolgus monkeys were divided into four groups, a group to be dosed with a vehicle (vehicle group), a group to be dosed with bunazosin (bunazosin group), a group to be dosed with latanoprost (latanoprost group) and a group to be dosed with bunazosin and latanoprost [(bunazosin+latanoprost) group].
• 1. For topical anesthesia, a drop of 0.4% oxybuprocain hydrochloride ophthalmic solution was instilled into a single eye of each normal cynomolgus monkey. Then, intraocular pressure was measured before drug administration. • 2. […] 2, 4 and 6 hours after the administration of these test compound solutions, one drop of 0.4% oxybuprocain hydrochloride eye drops was instilled for topical anesthesia, and the intraocular pressure was measured. The maximum reduction of intraocular pressure in each group was determined by the following formula. […]

Row | SMILES | Maximum reduction of intraocular pressure [mmHg]
1 | CCCC(=O)N1CCCN(c2nc(N)c3cc(OC)c(OC)cc3n2)CC1 [Bunazosin, Bunazosin hydrochloride] | 1.9
2 | CC(C)OC(=O)CCC/C=C\C[C@@H]1[C@@H](CC[C@@H](O)CCc2ccccc2)[C@H](O)C[C@@H]1O [Latanoprost] | 2.6
